Assay [1] deals with Raoultella planticola. The assay is described as follows: Antibiofilm activity against Klebsiella planticola MTCC 530 after 24 hrs by crystal violet assay. The note with it: MTCC 530, 24 h. The assay is classed as functional, organism-based.
Assay [2] concerns Staphylococcus aureus. The assay is described as follows: Antibiofilm activity against Staphylococcus aureus MTCC 96 after 24 hrs by crystal violet assay. The class given is functional, organism-based. The note with it: for IC50: MTCC 96, 24 h.
Assay [3] concerns Staphylococcus aureus. The assay is described as follows: Antibiofilm activity against Staphylococcus aureus MLS-16 MTCC 2940 after 24 hrs by crystal violet assay. The assay is classed as functional, organism-based. The conditions noted are these: MLS-16 MTCC 2940, 24 h.
In assay [4] the test system is Staphylococcus aureus. The assay is described as follows: Bactericidal activity against Staphylococcus aureus MTCC 96 after 24 hrs. The class given is functional. The note with it: MTCC 96, 24 h.
Assay [5] deals with Escherichia coli. The assay is described as follows: Bactericidal activity against Escherichia coli MTCC 739 after 24 hrs. The class given is functional. The note with it: MTCC 739, 24 h.
The test system of the next assay is Enterococcus faecalis. Briefly: Antimicrobial activity against vancomycin -resistant Enterococcus faecalis after 24 hrs by microdilution method. The class given is functional.
Assay [6] has as its system Micrococcus luteus. The assay is described as follows: Antimicrobial activity against Micrococcus luteus MTCC 2470 after 24 hrs by well diffusion method. The assay is classed as functional. The note with it: MTCC 2470, 24 h.
Assay [7] relates to Staphylococcus aureus. Briefly: Antimicrobial activity against Staphylococcus aureus MLS-16 MTCC 2940 after 24 hrs by well diffusion method. The class given is functional. The conditions noted are these: MLS-16 MTCC 2940, 24 h.
Assay [8] relates to Escherichia coli. The assay is described as follows: Antimicrobial activity against Escherichia coli MTCC 739 after 24 hrs by well diffusion method. The assay is classed as functional. The conditions noted are these: MTCC 739, 24 h.
Assay [9] has as its system Raoultella planticola. Briefly: Bactericidal activity against Klebsiella planticola MTCC 530 after 24 hrs. The assay is classed as functional. The conditions noted are these: MTCC 530, 24 h.
Assay [10] has as its system Staphylococcus aureus. Briefly: Bactericidal activity against Staphylococcus aureus MLS-16 MTCC 2940 after 24 hrs. The assay is classed as functional. The note with it: MLS-16 MTCC 2940, 24 h.
Assay [11] has as its system Bacillus subtilis. Briefly: Bactericidal activity against Bacillus subtilis MTCC 121 after 24 hrs. The class given is functional. The note with it: MTCC 121, 24 h.
Assay [12] relates to Bacillus subtilis. Briefly: Antimicrobial activity against Bacillus subtilis MTCC 121 after 24 hrs by well diffusion method. The note with it: MTCC 121, 24 h. The class given is functional.
In assay [13] the test system is Staphylococcus aureus. Briefly: Antimicrobial activity against Staphylococcus aureus MTCC 96 after 24 hrs by well diffusion method. The class given is functional. The conditions noted are these: MTCC 96, 24 h.
Assay [14] concerns Staphylococcus aureus. Briefly: Antimicrobial activity against methicillin-resistant Staphylococcus aureus after 24 hrs by microdilution method. The assay is classed as functional.
The test system of the next assay is MRC5. The assay is described as follows: Cytotoxicity against human MRC5 cells. The class given is cell-based.
The next assay relates to Vero. The assay is described as follows: Cytotoxicity against african green monkey Vero cells. The class given is cell-based. The conditions noted are these: Chlorocebus sabaeus.
The test system of assay [15] is Pseudomonas aeruginosa. Briefly: Bactericidal activity against Pseudomonas aeruginosa MTCC 2453 after 24 hrs. The assay is classed as functional. The conditions noted are these: MTCC 2453, 24 h.
The test system of assay [16] is Raoultella planticola. The assay is described as follows: Antimicrobial activity against Klebsiella planticola MTCC 530 after 24 hrs by well diffusion method. The class given is functional. The note with it: MTCC 530, 24 h.
Assay [17] relates to Pseudomonas aeruginosa. The assay is described as follows: Antimicrobial activity against Pseudomonas aeruginosa MTCC 2453 after 24 hrs by well diffusion method. The class given is functional. The note with it: MTCC 2453, 24 h.
A further assay concerns Candida albicans. Briefly: Antimicrobial activity against Candida albicans MTCC 3017 at 150 ug/ml after 24 hrs by well diffusion method. The class given is functional, organism-based.
In assay [18] the test system is Micrococcus luteus. The assay is described as follows: Bactericidal activity against Micrococcus luteus MTCC 2470 after 24 hrs. The class given is functional. The conditions noted are these: MTCC 2470, 24 h.
In assay [19] the test system is Mycobacterium tuberculosis. The assay is described as follows: Antimicrobial activity against Mycobacterium tuberculosis H37Rv after 3 weeks by broth dilution method. The note with it: for MIC: 504 h. The class given is functional.

In brackets after ≈: the same amount, converted by molar mass. Activity calls are given as the source filed them. The calls are words filed in the database; no cut-off is given here. Where only a bound is given, the exact number is not on record here.

In the case of `CC[C@H]1OC(=O)[C@H](C)[C@@H](O[C@H]2C[C@@](C)(OC)[C@@H](O)[C@H](C)O2)[C@H](C)[C@@H](O[C@@H]2O[C@H](C)C[C@H](N(C)C)[C@H]2O)[C@](C)(O)C[C@@H](C)C(=O)[C@H](C)[C@@H](O)[C@]1(C)O` [ERYTHROMYCIN], the half-inhibitory concentration (IC50) in the assay with Raoultella planticola [1] amounted to 0.19 µg/mL (≈ 0.259 µM); with Staphylococcus aureus [2], 0.25 µg/mL (≈ 0.341 µM); in the assay on Staphylococcus aureus [3] it was 0.21 µg/mL (≈ 0.286 µM).

Take `COc1cc(Cn2cc(CNC(=O)c3ccc([N+](=O)[O-])o3)nn2)ccc1O`: the MBC was 18.8 µg/mL (≈ 50.2 µM) with Staphylococcus aureus [4]; 75 µg/mL (≈ 201 µM) in the assay with Escherichia coli [5]; 75 µg/mL (≈ 201 µM) in the assay with Raoultella planticola [9]; 4.68 µg/mL (≈ 12.5 µM) with Staphylococcus aureus [10]; 9.37 µg/mL (≈ 25.1 µM) against Bacillus subtilis [11]; more than 150 µg/mL against Pseudomonas aeruginosa [15]. This compound also gave an MBC in the assay on Micrococcus luteus [18] of 2.34 µg/mL (≈ 6.27 µM). Further, the MIC in the assay on Enterococcus faecalis was more than 64 µg/mL; against Micrococcus luteus [6], 1.17 µg/mL (≈ 3.13 µM); with Staphylococcus aureus [7] it was 2.34 µg/mL (≈ 6.27 µM); in the assay on Escherichia coli [8] it was 37.5 µg/mL (≈ 100 µM); with Bacillus subtilis [12], 4.68 µg/mL (≈ 12.5 µM); with Staphylococcus aureus [13], 18.8 µg/mL (≈ 50.2 µM). In addition, the MIC is 16 µg/mL (≈ 42.9 µM) in the assay on Staphylococcus aureus [14], 75 µg/mL (≈ 201 µM) against Raoultella planticola [16], more than 150 µg/mL in the assay with Pseudomonas aeruginosa [17] and 8 µg/mL (≈ 21.4 µM) in [19]. The half-inhibitory concentration (IC50) with Raoultella planticola [1] worked out at 42.5 µg/mL (≈ 114 µM); in the assay on Staphylococcus aureus [2], 10.8 µg/mL (≈ 28.9 µM); with MRC5, 182 µM; in the assay on Vero, 224 µM; in the assay on Staphylococcus aureus [3], 1.7 µg/mL (≈ 4.55 µM). Besides, in the assay on Candida albicans, the result was inactive.

For `COc1ccc(Cn2cc(CNC(=O)c3ccc([N+](=O)[O-])o3)nn2)cc1O`, the MBC in the assay with Staphylococcus aureus [4] is 75 µg/mL (≈ 201 µM); in the assay on Escherichia coli [5], 75 µg/mL (≈ 201 µM); against Raoultella planticola [9], 18.8 µg/mL (≈ 50.2 µM); against Staphylococcus aureus [10], 18.8 µg/mL (≈ 50.2 µM); in the assay on Bacillus subtilis [11] it was 18.8 µg/mL (≈ 50.2 µM); in the assay with Pseudomonas aeruginosa [15], more than 150 µg/mL. Also, in the assay on Micrococcus luteus [18], the minimum bactericidal concentration (MBC) was determined as 9.37 µg/mL (≈ 25.1 µM). The MIC turned out to be 9.37 µg/mL (≈ 25.1 µM) against Micrococcus luteus [6]; 9.37 µg/mL (≈ 25.1 µM) with Staphylococcus aureus [7]; 37.5 µg/mL (≈ 100 µM) with Escherichia coli [8]; 9.37 µg/mL (≈ 25.1 µM) in the assay with Bacillus subtilis [12]; 37.5 µg/mL (≈ 100 µM) in the assay with Staphylococcus aureus [13]; 18.8 µg/mL (≈ 50.2 µM) in the assay on Raoultella planticola [16]. This compound returned an MIC against Pseudomonas aeruginosa [17] of more than 150 µg/mL. Also, the IC50 came to 11.3 µg/mL (≈ 30.3 µM) with Raoultella planticola [1]; 10.3 µg/mL (≈ 27.6 µM) in the assay with Staphylococcus aureus [2]; 189 µM in the assay with MRC5; 174 µM in the assay with Vero; 5.1 µg/mL (≈ 13.7 µM) in the assay with Staphylococcus aureus [3]. Moreover, the result (with Candida albicans; in assay [19]) was inactive.

`CC(=O)NC[C@H]1CN(c2ccc(N3CCOCC3)c(F)c2)C(=O)O1` [LINEZOLID]: the MIC in the assay with Staphylococcus aureus [14] came to 8 µg/mL (≈ 23.7 µM); in [19] it was 1 µg/mL (≈ 2.96 µM).

With `O=C(NCc1cn(Cc2ccc([N+](=O)[O-])cc2)nn1)c1ccc([N+](=O)[O-])o1`, the MBC was more than 150 µg/mL in the assay on Staphylococcus aureus [4]; more than 150 µg/mL with Escherichia coli [5]; 37.5 µg/mL (≈ 101 µM) against Raoultella planticola [9]; 4.68 µg/mL (≈ 12.6 µM) against Staphylococcus aureus [10]; 4.68 µg/mL (≈ 12.6 µM) with Bacillus subtilis [11]; more than 150 µg/mL with Pseudomonas aeruginosa [15]. In the assay on Micrococcus luteus [18], the minimal bactericidal concentration (MBC) came out at 9.37 µg/mL (≈ 25.2 µM). Also, the minimal inhibitory concentration (MIC) in the assay on Enterococcus faecalis was more than 64 µg/mL; in the assay on Micrococcus luteus [6] it was 4.68 µg/mL (≈ 12.6 µM); in the assay with Staphylococcus aureus [7] it was 4.68 µg/mL (≈ 12.6 µM); in the assay with Escherichia coli [8], more than 150 µg/mL; in the assay with Bacillus subtilis [12], 2.34 µg/mL (≈ 6.29 µM); in the assay with Staphylococcus aureus [13], more than 150 µg/mL. Besides, the MIC was 8 µg/mL (≈ 21.5 µM) with Staphylococcus aureus [14], 18.8 µg/mL (≈ 50.4 µM) against Raoultella planticola [16], more than 150 µg/mL with Pseudomonas aeruginosa [17] and 8 µg/mL (≈ 21.5 µM) in assay [19]. The half-inhibitory concentration (IC50) in the assay on Raoultella planticola [1] was 17.9 µg/mL (≈ 48.1 µM); in the assay on MRC5, 213 µM; in the assay with Vero, 291 µM; in the assay with Staphylococcus aureus [3] it was 3.8 µg/mL (≈ 10.2 µM). In addition, the inhibition entry in the assay on Staphylococcus aureus [2] is “inactive”. Further, the outcome in the assay with Candida albicans was inactive.

The values above are taken from ChEMBL document CHEMBL3091424, “Anti-tubercular agents. Part 8: synthesis, antibacterial and antitubercular activity of 5-nitrofuran based 1,2,3-triazoles” (Bioorg Med Chem Lett, 2013).
